Assay results reported in US20070134233A1, “Compositions and methods relating to organ-, tissue-, and cell-specific antibodies” (Phylonix Pharmaceuticals, Inc., priority 2004, published 2007).
“Also recorded” adds a separate entry of the source.

Assays:
[1] = test system: activated endothelial cells in the zebrafish embryo; assay: Quantitative in vivo EC proliferation assay (whole animal Phy-V002 ELISA); conditions: ~20 hpf embryos treated for 28 hours
Description: Quantitative in vivo EC proliferation assay: Embryos were fixed by Dent's fixative (DMSO/methanol=1/3) at room temperature (23+2° C.) for 3 hours, dehydrated to 100% EtOH following standard dehydration procedures. Embryos were then permeabilized, rehydrated, treated with horseradish peroxidase (HRP) suppressor to inhibit endogenous HRP. After treatment with 1 M NH4Cl at room temperature for 3 hours to quench autofluorescence, embryos were then blocked and incubated with Phy-V002 mAb following a standard procedure (see Westerfield, supra). After washing with PBST, embryos were incubated with HRP-conjugated secondary antibody. QuantaBlu (Pierce) was used as the fluorescence enzyme substrate; the stained EC was quantified by measuring the fluorescence units of the enzymatic end product at 315-340 nm (excitation)/370-470 nm (emission) using SPECTRAmax Gemini microplate reader (Molecular Devices).
Drug effect on EC proliferation was calculated by the following formula: [formula]

[2] = test system: angiogenic vessel development in zebrafish embryos; assay: Whole mount immunostaining with Phy-V001 of drug-treated embryos; type: in vivo; conditions: for vasculature compared to controls: various concentrations; for vasculature compared to controls / ISV staining by Phy-V001: at 3 dpf; for ISV staining by Phy-V001: 48 hours
[3] = test system: angiogenic vessel growth in zebrafish embryos; assay: Quantitative in vivo microplate assay using Phy-V001 mAb; conditions: for effect on angiogenic vessel development (discussion summary): 2 dpf and 3 dpf stages; for Vessel Reduction (%) Zebrafish: single dosing, Concentration SU5416 2 μM, Flavopiridol 3 μM
zebrafish embryos [4] = assay: Embryo death and body malformation after drug treatment; type: in vivo
Description: Assay validation with small molecule drugs: Using the whole mount immunostaining technique described supra, several small molecule drugs were tested. […] Flavopiridol is a cyclin-dependent kinase inhibitor known to inhibit cell proliferation (Senderowicz, Invest. New Drugs 17:313-20, 1999). COL-1 and COL-3 are inhibitors of matrix metalloproteases (MMPs), which are known to play a crucial role in vascular endothelial cell migration (Seftor et al. 2001). During early embryo development (˜12 hpf), many structures including the notochord, the somites, and the heart are beginning to form and these structures directly affect both vasculargenesis and angiogenesis. After 20 hpf, since the DA and the PCV are fully formed, drug effects on vessel formation are less likely to be secondary effects (indirect effects due to damage to the notochord, somites, or heart). Therefore, ˜1 dpf was chosed as the time point to initiate drug treatment. Embryos were incubated with varying concentrations of each drug continuously for 48 hours. Drug effects were examined at 2 dpf and 3 dpf.

[5] = test system: vessel formation in zebrafish embryos; assay: In vivo vessel formation assay (Phy-V002 staining); conditions: 2 dpf embryos
From the text: In vivo vesselformation assay: Embryos were processed as described in “In vivo EC migration Assay,” supra, and examined by fluorescence microscopy. Images of stained embryos were captured by CCD camera and analyzed by Adobe Photoshop software. Higher magnification (10×) images of control and drug treated embryos at the region where vessel defects were observed were quantitated by morphometric analysis (Signal (S)=[area (pixel) X signal intensity]) using Scion Image program. Percent (%) inhibition in vessel formation can be calculated by the following formula: [formula] Results 1. Quantitative in Vivo EC Proliferation Assay

Mouse Tumor = conditions: 12 mg/ml/day, dosing frequency 18; cited from earlier work
zebrafish embryos [6] = assay: Embryo growth inhibition by body length; type: in vivo; conditions: 5 μM for 4 days
Description: Drugs cause growth retardation: Many drugs cause growth inhibition. […] 1 dpf embryos are treated with identified “hit” drugs at various concentrations for 4 days. Body length is measured at 5 dpf and plotted against drug concentration. Normal untreated and 0.1% DMSO treated embryos are used as controls. At least 10 embryos are used for each condition.

EC = conditions: serum of patients treated with flavopiridol; cited from earlier work

## COc1cc2c(cc1O)CC[C@@H]1[C@@H]2CC[C@]2(C)[C@@H](O)CC[C@@H]12 [2-methoxyestradiol]
[1]
  % inhibition in EC proliferation, dose response: % inhibition in EC proliferation increasing proportionally with drug concentration

## NC(=O)C1=C(O)C[C@@H]2C[C@@H]3Cc4cccc(O)c4C(=O)C3=C(O)[C@]2(O)C1=O [COL-3]
[2]; at 2 dpf, concentration not given
  Change in vessel pattern: caused a loss of a few ISVs
[2]
  vasculature compared to controls: appeared unchanged
[3]; 5 μM, at 2 dpf
  maximum inhibition of angiogenic vessel growth: ~39%
[3]; 1 to 10 μM, at 3 dpf
  inhibition on angiogenic vessel development: ~25%
[3]
  effect on angiogenic vessel development (discussion summary): significant inhibitory effect

## Cc1cc(C)c(/C=C2\C(=O)Nc3ccccc32)[nH]1 [SU5416]
[2]; 10 μM, 24 hours, at 2 dpf
  Inhibition of angiogenic vessel development (Phy-V001 staining): inhibitory effect was not obvious
[2]; 15 μM, 24 hours, at 2 dpf
  Inhibition of angiogenic vessel development (Phy-V001 staining): dramatic decrease in Phy-V001 staining
[2]; 20 μM, at 2 dpf, surviving embryos
  Inhibition of angiogenic vessel development (Phy-V001 staining): ISVs were barely detectable
[2]; 10 and 15 μM
  ISV staining by Phy-V001: staining was weaker
Zebrafish embryos [4]; 20 μM, at 2 dpf
  body formation of surviving embryos: truncated body formation
[3]; 48 hours treatment, at 3 dpf, surviving embryos
  inhibition in angiogenic vessel growth: No significant inhibition
[3]; Danio rerio, 15 μM, at 2 dpf, read-out: maximum inhibition in vessel growth
  inhibition at 15 µM: ~40.5%
[3]
  Vessel Reduction (%) Zebrafish: ˜40.5%
[5]; 1 μM
  vessel formation (cranial vessels and ISVs): partially missing; also recorded: abnormal when compared to control embryos
[5]; 2.5 μM and higher
  vessel formation (cranial vessels and ISVs): nearly completely absent
Mouse Tumor
  Vessel Reduction (%) Mouse Tumor: ˜42%

## Cc1[nH]c(/C=C2\C(=O)Nc3ccc(Br)cc32)c(C)c1CCC(=O)O [SU9518]
[2]; 0.1 μM to 100 μM, at 2 dpf
  Change in vessel development compared to control: did not cause a change in vessel development
[2]
  vasculature compared to controls: appeared unchanged
[3]; 0.1 μM to 100 μM, at 2 dpf
  angiogenic vessel inhibition: did not result in any angiogenic vessel inhibition
[3]
  effect on angiogenic vessel development (discussion summary): did not have any effect

## CN1CC[C@H](c2c(O)cc(O)c3c(=O)cc(-c4ccccc4Cl)oc23)[C@H](O)C1 [flavopiridol]
[2]; 1 μM, at 2 dpf
  Inhibition of angiogenic vessel development (Phy-V001 staining): inhibitory effect was not obvious
[2]; 3 μM, at 2 dpf
  Inhibition of angiogenic vessel development (Phy-V001 staining): ISV staining in the trunk region decreased
[2]; 5 μM, at 2 dpf, surviving embryos
  Inhibition of angiogenic vessel development (Phy-V001 staining): dramatic decrease in ISV staining
[2]; 7 μM, at 2 dpf, surviving embryos
  Inhibition of angiogenic vessel development (Phy-V001 staining): decreased staining in ISVs
[2]; 1, 3, and 5 μM
  ISV staining by Phy-V001: staining intensity appeared weaker
Zebrafish embryos [4]; 5 μM, at 2 dpf
  body formation of surviving embryos: truncated body formation
  embryos died: ~16%
Zebrafish embryos [4]; 7 μM, at 2 dpf
  embryos died: ~20%
Zebrafish embryos [4]; 7 μM, at 3 dpf
  embryos died: All the 7 μM flavopiridol treated embryos died
[3]; Danio rerio, 1 μM, at 2 dpf
  inhibition at 1 µM: 13%
[3]; Danio rerio, 3 μM, at 2 dpf, read-out: maximum inhibition of angiogenic vessel growth
  inhibition at 3 µM: ~27%
[3]; Danio rerio, 5 μM, at 3 dpf
  inhibition at 5 µM: ~17%
[3]
  Vessel Reduction (%) Zebrafish: ˜27%
Zebrafish embryos [6]
  overall embryo growth, body length: caused inhibition of overall embryo growth
[1]
  % inhibition in EC proliferation, dose response: % inhibition in EC proliferation increasing proportionally with drug concentration
EC
  Vessel Reduction (%) EC Proliferation: ˜32%
  Vessel Reduction (%) EC Proliferation, range: (8-70% range)
